In brackets after ≈: the same amount, converted by molar mass. Where a SMILES comes first, the peptide text is derived from it. [ ]: non-standard residue; d: D form. Cha = N[C@@H](CC1CCCCC1)C(=O)O; Nle = CCCC[C@H](N)C(=O)O
How the values were obtained:
[1] = tested on: Candida albicans
Protocol: (§1) Lyophilized peptides were weighed on a Microbalance (Mettler MT5) and dissolved in sterile water containing 0.01% acetic acid Tachyplesin was purchased from Bachem Ltd. (Bubendorf Switzerland).
(§2) The antimicrobial activities of the peptides were determined by the standard NCCLS broth microdilution method (see ref 1, below) examined in sterile 96-wells plates (Nunclon polystyrene microtiter plates) in a total volume of 100 μl. […] 10^6 colony forming units (CFU)/ml for bacteria or 5×10^3 CFU/ml for Candida. Aliquots (50 μl) of the innocula were added to 50 μl of MH broth containing the peptide in serial twofold dilutions. The microorganisms used were Escherichia coli (ATCC 25922), Pseudomnonas aeruginosa (P. aeruginosa) (ATCC 27853), Stahylococcus aureus (ATCC 29213 and ATCC 25923) and Candida albicans. A selected number of peptides were screened for activity against a larger panel of gram-negative strains. These strains were; Escherichia coli ATCC 43827 and clinical isolates of Pseudomonas (P. aeruginosa V07 14482, P. aeruginosa 15288, P. aeruginosa V02 15328 and P. aeruginosa V09 16085) and Acinetobacter (Acinetobacter V04 19905/1, Acinetobacter V12 21143/1 and Acinetobacter V12 21193/1).

[2] = tested on: Escherichia coli (ATCC 25922); details: ATCC 25922
Protocol: as §1, §2

[3] = tested on: Staphylococcus aureus ATCC 25923; details: ATCC 25923
Protocol: as §1, §2

[4] = tested on: Staphylococcus aureus ATCC 29213; details: ATCC 29213
Protocol: as §1, §2

| SMILES | MIC Candida albicans [1] [µg/mL] | MIC Escherichia coli ATCC 25922 [2] [µg/mL] | MIC Staphylococcus aureus ATCC 25923 [3] [µg/mL] | MIC Staphylococcus aureus ATCC 29213 [4] [µg/mL] |
| --- | --- | --- | --- | --- |
| CC(C)C[C@@H]1NC(=O)[C@H](CCCNC(=N)N)NC(=O)[C@H](CCCNC(=N)N)NC(=O)[C@H](CCCNC(=N)N)NC(=O)[C@H](Cc2ccc(O)cc2)NC(=O)[C@H](Cc2ccc(O)cc2)NC(=O)[C@H](CCCNC(=N)N)NC(=O)[C@@H]2CCCN2C(=O)[C@H]2CCCN2C(=O)[C@H](CCCNC(=N)N)NC(=O)[C@H](Cc2ccc(O)cc2)NC1=O [Example 11] (cyclo(RYYRRRLYR[dP]P)) | 100 (≈ 63.4 µM) | 25 (≈ 15.8 µM) | 100 (≈ 63.4 µM) | 100 (≈ 63.4 µM) |
| CC(C)C[C@@H]1NC(=O)[C@H](CCCNC(=N)N)NC(=O)[C@H](CCCNC(=N)N)NC(=O)[C@H](CCCNC(=N)N)NC(=O)[C@H](Cc2ccccc2)NC(=O)[C@H](Cc2ccccc2)NC(=O)[C@H](CC(C)C)NC(=O)[C@H](CCCNC(=N)N)NC(=O)[C@@H]2CCCN2C(=O)[C@H]2CCCN2C(=O)[C@H](CCCNC(=N)N)NC(=O)[C@H](Cc2ccccc2)NC1=O [Example 36] (cyclo(RLFFRRRLFR[dP]P)) | 25 (≈ 15.2 µM) | 25 (≈ 15.2 µM) | 50 (≈ 30.4 µM) | 25 (≈ 15.2 µM) |
| CC(C)C[C@@H]1NC(=O)[C@H](CCCNC(=N)N)NC(=O)[C@H](CCCNC(=N)N)NC(=O)[C@H](CCCNC(=N)N)NC(=O)[C@H](Cc2ccccc2)NC(=O)[C@H](Cc2ccccc2)NC(=O)[C@H](CC(C)C)NC(=O)[C@H](CC(C)C)NC(=O)[C@@H]2CCCN2C(=O)[C@H]2CCCN2C(=O)[C@H](CCCNC(=N)N)NC(=O)[C@H](Cc2ccccc2)NC1=O [Example 40] (cyclo(LLFFRRRLFR[dP]P)) | 25 (≈ 15.6 µM) | 25 (≈ 15.6 µM) | 50 (≈ 31.2 µM) | 25 (≈ 15.6 µM) |
| CC(C)C[C@@H]1NC(=O)[C@H](Cc2ccccc2)NC(=O)[C@H](CC(C)C)NC(=O)[C@H](CCCNC(=N)N)NC(=O)[C@@H]2CCCN2C(=O)[C@H]2CCCN2C(=O)[C@H](CC(C)C)NC(=O)[C@H](CCCNC(=N)N)NC(=O)[C@H](Cc2ccccc2)NC(=O)[C@H](Cc2ccccc2)NC(=O)[C@H](CCCNC(=N)N)NC(=O)[C@H](CCCNC(=N)N)NC(=O)[C@H](CCCNC(=N)N)NC1=O [Example 59] (cyclo(RLFLRRRFFRL[dP]P)) | 25 (≈ 14.2 µM) | 4.7 (≈ 2.68 µM) | 50 (≈ 28.5 µM) | 25 (≈ 14.2 µM) |
| CC(C)C[C@@H]1NC(=O)[C@H](Cc2ccccc2)NC(=O)[C@H](CC(C)C)NC(=O)[C@H](Cc2ccccc2)NC(=O)[C@@H]2CCCN2C(=O)[C@H]2CCCN2C(=O)[C@H](CCCNC(=N)N)NC(=O)[C@H](CCCNC(=N)N)NC(=O)[C@H](Cc2ccccc2)NC(=O)[C@H](CC(C)C)NC(=O)[C@H](CCCNC(=N)N)NC(=O)[C@H](CCCNC(=N)N)NC(=O)[C@H](CCCNC(=N)N)NC1=O [Example 63] (cyclo(FLFLRRRLFRR[dP]P)) | 12.5 (≈ 7.12 µM) | 6.2 (≈ 3.53 µM) | 25 (≈ 14.2 µM) | 12.5 (≈ 7.12 µM) |
| CC(C)C[C@@H]1NC(=O)[C@H](Cc2ccc(O)cc2)NC(=O)[C@H](CCCNC(=N)N)NC(=O)[C@H](CCCNC(=N)N)NC(=O)[C@H](CCCNC(=N)N)NC(=O)[C@H](Cc2ccc(O)cc2)NC(=O)[C@H](CC(C)C)NC(=O)[C@H](CC(C)C)NC(=O)[C@H](Cc2ccc(O)cc2)NC(=O)[C@H](CCCNC(=N)N)NC(=O)[C@@H]2CCCN2C(=O)[C@H]2CCCN2C(=O)[C@H](CCCNC(=N)N)NC(=O)[C@H](CCCNC(=N)N)NC(=O)[C@H](Cc2ccc(O)cc2)NC(=O)[C@H](CC(C)C)NC1=O [Example 71] (cyclo(RYLLYRRRYLLYRR[dP]P)) | 50 (≈ 22.4 µM) | 12.5 (≈ 5.59 µM) | 12.5 (≈ 5.59 µM) | 12.5 (≈ 5.59 µM) |
| CC(C)C[C@@H]1NC(=O)[C@H](CCCNC(=N)N)NC(=O)[C@H](CCCCN)NC(=O)[C@@H]2CCCN2C(=O)[C@H]2CCCN2C(=O)[C@H](CCCNC(=N)N)NC(=O)[C@H](CC(C)C)NC(=O)[C@H](C(C)C)NC(=O)[C@H](CCCCN)NC(=O)[C@H](C(C)C)NC(=O)[C@H](Cc2ccc(O)cc2)NC(=O)[C@H](Cc2c[nH]c3ccccc23)NC(=O)[C@H](CCCNC(=N)N)NC(=O)[C@H](CCCNC(=N)N)NC(=O)[C@H](CCCNC(=N)N)NC(=O)[C@H](Cc2c[nH]c3ccccc23)NC(=O)[C@H](Cc2ccc(O)cc2)NC(=O)[C@H](CCCCN)NC1=O [Example 87] (cyclo(KRLKYWRRRWYVKVLR[dP]P)) | 12.5 (≈ 5.03 µM) | 6.2 (≈ 2.5 µM) | 9.4 (≈ 3.79 µM) | 9.4 (≈ 3.79 µM) |
| CC(C)C[C@@H]1NC(=O)[C@H](CCCNC(=N)N)NC(=O)[C@H](CC(C)C)NC(=O)[C@@H]2CCCN2C(=O)[C@H]2CCCN2C(=O)[C@H](C(C)C)NC(=O)[C@H](CCCNC(=N)N)NC(=O)[C@H](Cc2ccc(O)cc2)NC(=O)[C@H](CCCCN)NC(=O)[C@H](Cc2ccccc2)NC(=O)[C@H](CCCNC(=N)N)NC(=O)[C@H](CCCNC(=N)N)NC(=O)[C@H](Cc2ccc(O)cc2)NC(=O)[C@H](CCCCN)NC1=O [Example 103] (cyclo(LRLKYRRFKYRV[dP]P)) | 12.5 (≈ 6.67 µM) | 9.4 (≈ 5.02 µM) | 25 (≈ 13.3 µM) | 25 (≈ 13.3 µM) |
| CC(C)C[C@@H]1NC(=O)[C@H](CCCNC(=N)N)NC(=O)[C@H](CC2CCCCC2)NC(=O)[C@@H]2CCCN2C(=O)[C@H]2CCCN2C(=O)[C@H](C(C)C)NC(=O)[C@H](CCCNC(=N)N)NC(=O)[C@H](Cc2ccc(O)cc2)NC(=O)[C@H](CCCCN)NC(=O)[C@H](Cc2c[nH]c3ccccc23)NC(=O)[C@H](CCCNC(=N)N)NC(=O)[C@H](CCCNC(=N)N)NC(=O)[C@H](CCCCN)NC(=O)[C@H](CCCCN)NC1=O [Example 121] (cyclo([Cha]RLKKRRWKYRV[dP]P)) | 6.2 (≈ 3.23 µM) | 25 (≈ 13 µM) | 6.2 (≈ 3.23 µM) | 6.2 (≈ 3.23 µM) |
| CC[C@H](C)[C@@H]1NC(=O)[C@H](CCCCN)NC(=O)[C@H](Cc2c[nH]c3ccccc23)NC(=O)[C@H](CCCNC(=N)N)NC(=O)[C@H](CCCNC(=N)N)NC(=O)[C@H](CCCCN)NC(=O)[C@H](CCCCN)NC(=O)[C@H](CC(C)C)NC(=O)[C@H](CCCNC(=N)N)NC(=O)[C@H](CC(C)C)NC(=O)[C@@H]2CCCN2C(=O)[C@H]2CCCN2C(=O)[C@H](C(C)C)NC(=O)[C@H](CCCNC(=N)N)NC1=O [Example 152] (cyclo(LRLKKRRWKIRV[dP]P)) | 12.5 (≈ 6.84 µM) | 25 (≈ 13.7 µM) | 25 (≈ 13.7 µM) | 50 (≈ 27.3 µM) |
| CCCC[C@@H]1NC(=O)[C@H](CCCCN)NC(=O)[C@H](Cc2c[nH]c3ccccc23)NC(=O)[C@H](CCCNC(=N)N)NC(=O)[C@H](CCCNC(=N)N)NC(=O)[C@H](CCCCN)NC(=O)[C@H](CCCCN)NC(=O)[C@H](CC(C)C)NC(=O)[C@H](CCCNC(=N)N)NC(=O)[C@H](CC(C)C)NC(=O)[C@@H]2CCCN2C(=O)[C@H]2CCCN2C(=O)[C@H](C(C)C)NC(=O)[C@H](CCCNC(=N)N)NC1=O [Example 154] (cyclo(LRLKKRRWK[Nle]RV[dP]P)) | 12.5 (≈ 6.84 µM) | 12.5 (≈ 6.84 µM) | 12.5 (≈ 6.84 µM) | 25 (≈ 13.7 µM) |

From patent US7253146B2, “Template-fixed peptidomimetics with antimicrobial activity” (Polyphor Ltd, priority 2001, dated 2007)
